Like-named read-outs stand apart in the source and are kept apart here.
Tested on: BALB/c 3T3 (CCL-163) cells
Procedure: The assay used to assess phototoxicity is the so-called 3T3 Phototoxicity Assay. The assay compares the cytotoxicity of a series of doses of a test compound in the presence and absence of UVA/visible light.
Briefly, serial dilutions of a test compound are prepared, and are incubated with 3T3 cells in two 96-well plates. Following an initial incubation, the cells in one plate, the test cells receiving both the chemical and light, are exposed to UVA/visible light. In the second plate, the test cells receiving only the test chemical were treated the same way, except they are kept in the dark for the same amount of time.
Twenty-four hours after exposure, the test cells and the control cells are then incubated with neutral red dye. Neutral red dye is used to measure the relative number of living cells in each well. Live cells are stained with the dye while dead cells are not.
Phototoxicity is measured by the relative toxicity between the doses with and without light exposure following published guidelines.
Streptomycin sulfate ([…]) and penicillin (100 IU/ml) were added to the medium after the cells were treated with test article in 96-well plates.
Serial dilutions of the tetracycline derivatives were prepared in DMSO at concentrations 100× to final testing concentration. The COL dilutions in DMSO were then diluted in Hanks' Balanced Salt Solution (HBSS) for application to the cells. The final DMSO concentration was 1% in treated and control cultures. A dose range finding assay is conducted with eight serial dilutions covering a range of 100-0.03 μg/ml in half log steps. Definitive assays are conducted with 6-8 serial dilutions prepared in quarter log steps, centered on the expected 50% toxicity point as determined in the dose range finding assay. One hundred 100 μg/ml was the highest dose recommended to prevent false negative results from UV absorption by the dosing solutions. One dose range finding and at least two definitive trials were performed on each tetracycline derivative and control compound.
Controls: Each assay included both negative (solvent) and positive controls. Twelve wells of negative control cultures were used on each 96-well plate. Chlorpromazine (Sigma Chemicals) was used as the positive control and was prepared and dosed like the test tetracycline derivatives.
Solar Simulator: A Dermalight SOL 3 solar simulator, equipped with a UVA H1 filter (320-400 nm), was adjusted to the appropriate height. Measurement of energy through the lid of a 96-well microtiter plate was carried out using a calibrated UV radiometer UVA sensor. Simulator height was adjusted to deliver 1.7±0.1 mW/cm^2 of UVA energy (resulting dose was 1 J/cm^2 per 10 minutes of exposure).
Phototoxicity Assay: Duplicate plates were prepared for each test material by seeding 10^4 3T3 cells per well in complete medium 24 hours before treatment. Prior to treatment, the medium was removed, and the cells washed once with 125 μl of prewarmed HBSS. Fifty μl of prewarmed HBSS were added to each well. Fifty μl of each test article dilution were added to the appropriate wells and the plates returned to the incubator for approximately one hour. Six wells were treated with each dose of test or control article on each plate. Following the 1 hr incubation, the plates designated for the photo irradiation were exposed (with the lid on) to 1.7±0.1 mW/cm^2 UVA light for 50±2 minutes at room temperature resulting in an irradiation dose of 5 J/cm^2. Duplicate plates, designated for the measurement of cytotoxicity without light, were kept in the dark room temperature for 50±2 minutes. After the 50 minute exposure period (with or without light) the test article dilutions were decanted from the plates and the cells washed once with 125 μl of HBSS. One hundred μl of medium were added to all wells and the cells incubated as above for 24±1 hours.

Molecule | PIF 2 (photoirritancy factor, IC50(-UVA)/IC50(+UVA), OECD draft guideline 432) | further results
C[C@H]1c2cccc(O)c2C(=O)C2=C(O)[C@]3(O)C(=O)C(C(N)=O)=C(O)[C@@H](N(C)C)[C@@H]3[C@@H](O)[C@@H]21 [Doxycycline, doxycycline, reference compound] |  | PIF 2 (photoirritancy factor, IC50(-UVA)/IC50(+UVA), OECD draft guideline 432) (mouse, 110 min): 26.71
CC1c2cccc(O)c2C(=O)C2=C(O)C3(O)C(=O)C(C(N)=O)=C(O)CC3C(O)C21 (stereo not shown) [COL 8, 4-dedimethylaminodoxycycline] | 82.61 | 
CN(C)c1cc([N+](=O)[O-])c(O)c2c1CC1CC3CC(O)=C(C(N)=O)C(=O)C3(O)C(O)=C1C2=O (stereo not shown) [COL 1002, 9-nitro-4-dedimethylaminominocycline] | 1.35 | 
NC(=O)C1=C(O)CC2CC3Cc4c([N+](=O)[O-])ccc(O)c4C(=O)C3=C(O)C2(O)C1=O (stereo not shown) [COL 302, 7-nitro-6-demethyl-6-deoxy-4-dedimethylaminotetracycline] | 23.32 | 
O=C(NCN1CCNCC1)C1=C(O)CC2CC3Cc4cccc(O)c4C(=O)C3=C(O)C2(O)C1=O (stereo not shown) [COL 315, 2-CONHCH2-piperazin-1-yl-6-demethyl-6-deoxy-4-dedimethylaminotetracycline] | 35.30 | 
CN(C)CCCN1c2ccccc2Sc2ccc(Cl)cc21 [Chlorpromazine, reference compound] |  | PIF 2 (photoirritancy factor, IC50(-UVA)/IC50(+UVA), OECD draft guideline 432) (mouse, 110 min): 40.38
NC(=O)C1=C(O)CC2CC3Cc4ccc([N+](=O)[O-])c(O)c4C(=O)C3=C(O)C2(O)C1=O (stereo not shown) [COL 303, 9-nitro-6-demethyl-6-deoxy-4-dedimethylaminotetracycline] | 13.82 | 
O=C(NCN1CCOCC1)C1=C(O)CC2CC3Cc4cccc(O)c4C(=O)C3=C(O)C2(O)C1=O (stereo not shown) [COL 314, 2-CONHCH2-morpholin-1-yl-6-demethyl-6-deoxy-4-dedimethylaminotetracycline] | 89.48 | 
CC1c2cccc(O)c2C(=O)C2=C(O)C3(O)C(=O)C(C(=O)NCN4CCCC4)=C(O)CC3C(O)C21 (stereo not shown) [COL 807, 2-CONHCH2-pyrrolidin-1-yl-4-dedimethylaminodoxycycline] |  | PIF 1 (photoirritancy factor, IC50(-UVA)/IC50(+UVA), earlier software): 40.4
O=C(NCN1CCCCC1)C1=C(O)CC2CC3Cc4cccc(O)c4C(=O)C3=C(O)C2(O)C1=O (stereo not shown) [COL 313, 2-CONHCH2-piperidin-1-yl-6-demethyl-6-deoxy-4-dedimethylaminotetracycline] | 58.22 | 
NC(=O)C1=C(O)C[C@@H]2C[C@@H]3Cc4cccc(O)c4C(=O)C3=C(O)[C@]2(O)C1=O [COL 3, 6-demethyl-6-deoxy-4-dedimethylaminotetracycline] | 84.72 | 
COL 2 |  | MPE (mean photo effect) (BALB/c 3T3 cells, cytotoxicity with vs without 5 J/cm^2 UVA, neutral red, OECD draft guideline 432 software): 0.005
O=C(NCN1CCCC1)C1=C(O)CC2CC3Cc4cccc(O)c4C(=O)C3=C(O)C2(O)C1=O (stereo not shown) [COL 312, 2-CONHCH2-pyrrolidin-1-yl-6-demethyl-6-deoxy-4-dedimethylaminotetracycline] | 75.11 | 
CN(C)c1ccc(O)c2c1CC1CC3CC(O)=C(C(N)=O)C(=O)C3(O)C(O)=C1C2=O (stereo not shown) [COL 10, 4-dedimethylaminominocycline] | 2.04 | 
CN(C)c1ccc2c(c1O)C(=O)C1=C(O)C3(O)C(=O)C(C(N)=O)=C(O)CC3CC1C2 (stereo not shown) [COL 306, 9-dimethylamino-6-demethyl-6-deoxy-4-dedimethylaminotetracycline] | 1.56 | 
CN(C)CC(=O)Nc1ccc2c(c1O)C(=O)C1=C(O)C3(O)C(=O)C(C(N)=O)=C(O)CC3CC1C2 (stereo not shown) [COL 309, 9-dimethylaminoacetamido-6-demethyl-6-deoxy-4-dedimethylaminotetracycline] | 12.87 | 

— patent US6946453B2, “4-dedimethylaminotracycline derivatives” (CollaGenex Pharmaceuticals, Inc., priority 1998, dated 2005)
